Experimental findings from patent publication US8691864B2, “Agents useful for reducing amyloid precursor protein and treating dementia and methods of use thereof” (priority 2000, dated 2014) are described below.

The subject of one data set is secreted APP. Kind of data set: ELISA for secreted APP in SHSY5Y cells. As to conditions: 16 hours. Type of data set: cell-based, human. The method, then: (§1) An enzyme-linked immunosorbent assay was developed to detect secreted APP in SHSY5Y cells, a human neuroblastoma cell line. The purpose of the screen was to discover small molecules that inhibit APP protein synthesis in SHSY5Y cells. SHSY5Y cells were plated at 1×10^5 cells/well in […] of DMEM containing 0.5% heat inactivated FBS in 96 well tissue culture treated plates (Falcon no. 35 3072). 144 MES compounds were tested at final concentrations of […] in 0.1% DMSO. Compounds were added and the plates incubated for 16 hours at 37° C./5% CO2. Maxisorp plates (Nunc no. 437958) were coated overnight with […] capture antibody (Biosource 44-100) diluted in Ca^++ and Mg^++ free PBS. Biosource 44-100 is a mouse mAb that recognizes aa 1-100 of human APP. Plates were blocked for 30 minutes with 1 mg/mL BSA in Ca^++ and Mg^++ free PBS. Plates were washed 3× with wash buffer (Ca^++ and Mg^++ free PBS+0.01% Tween20). […] of supernatants and non-cultured medium controls were transferred from culture plates to ELISA plates. Culture plates were reserved for toxicity analysis. Supernatants were incubated for 4 hours at RT on a plate shaker. After supernatant incubation, plates were washed 3×. Primary antibody (Signet Clone 6E-10 biotin) was added at 0.3125 mg/mL and incubated overnight at 4° C. The recognition site of 6E-10 is aa 1-17 of Ab. For detection, a 1:3000 dilution of horseradish peroxidase conjugated streptavidin (Endogen no. N-100) was incubated for 30 minutes. Plates were washed 3×. Enzyme activity was assessed by incubation with […] TMB substrate solution (Moss no. TMB-US) for 20 minutes. The reaction was stopped by the addition of […] 0.18M sulfuric acid. Optical density was read at 450 nm on Wallac Victor2 plate reader. During the first incubation, toxicity was determined using MTS assay, Cell Titer96 AQ reagent (Promega no. G5430). The background values from the non-cultured medium control were subtracted from the sample values and secreted APP levels and toxicity were expressed as % vehicle control. Of the 144 MES compounds screened, 12 inhibited secreted APP as determined by ELISA. The results are depicted in FIGS. 13A-M.
(§2) Using the experimental procedure outlined above, APP secretion and toxicity studies were performed on several other non-carbamate compounds, and the results are shown in Tables 3 and 4. The compound structures are provided in Table 2 in the application, which are identified by their MES number.

The next data set has as its system SH-SY-5Y Cells. The experiment in a line: MTS toxicity assay in SHSY5Y cells. Format: cell-based, human. The procedure: as §1, §2

For the molecule `CNC(C)c1cccc(OC)c1` (stereo not drawn) [MES 9271, 3-Methoxy-(1′-N-methylamino)-ethyl-benzene], the “APP Secretion by SH-SY-5Y Cells” value in the data set on secreted APP (Dose 0.08 uM) is listed as 96.6 % vehicle control; in the data set on secreted APP (Dose 0.25 uM), 87.95 % vehicle control; in the data set on secreted APP (Dose 0.74 uM), 92.2 % vehicle control; in the data set on secreted APP (Dose 2 uM) it was 96.1 % vehicle control; in the data set with secreted APP (Dose 6 uM), 89.9 % vehicle control; with secreted APP (Dose 20 uM), 63.825 % vehicle control. In addition, the “APP Toxicity SH-SY-5Y Cells (MTS assay)” value with SH-SY-5Y Cells (Dose 0.08 uM) turned out to be 103.55 % vehicle control; with SH-SY-5Y Cells (Dose 0.25 uM), 103.45 % vehicle control; in the data set with SH-SY-5Y Cells (Dose 0.74 uM), 103.1 % vehicle control; in the data set with SH-SY-5Y Cells (Dose 2 uM), 99 % vehicle control; with SH-SY-5Y Cells (Dose 6 uM), 99.475 % vehicle control; with SH-SY-5Y Cells (Dose 20 uM), 94.1 % vehicle control.
`COc1ccc2c(c1)[C@]1(C)CCN(Cc3ccccc3)C1N2C` (stereo partly drawn) [MES 9276]: the “APP Secretion by SH-SY-5Y Cells” value in the data set on secreted APP (Dose 2 uM) was 96.15 % vehicle control; in the data set with secreted APP (Dose 6 uM), 116.95 % vehicle control; with secreted APP (Dose 20 uM), 133.4 % vehicle control. In addition, the “APP Toxicity SH-SY-5Y Cells (MTS assay)” value in the data set on SH-SY-5Y Cells (Dose 2 uM, listed as 9276) stood at 92.85 % vehicle control; with SH-SY-5Y Cells (Dose 6 uM, listed as 9276), 93.5 % vehicle control; with SH-SY-5Y Cells (Dose 20 uM, listed as 9276), 90.65 % vehicle control.
For the molecule `COc1ccc2c(c1)[C@]1(C)CCN(Cc3ccccc3)C1N2C=O` (stereo partly drawn) [MES 9277], the “APP Secretion by SH-SY-5Y Cells” value is listed as 98.25 % vehicle control with secreted APP (Dose 2 uM), 109 % vehicle control in the data set on secreted APP (Dose 6 uM) and 113.6 % vehicle control in the data set on secreted APP (Dose 20 uM). Further, the figures for the “APP Toxicity SH-SY-5Y Cells (MTS assay)” value with SH-SY-5Y Cells (Dose 2 uM), in the data set on SH-SY-5Y Cells (Dose 6 uM) and with SH-SY-5Y Cells (Dose 20 uM) were 98.25 % vehicle control, 98.3 % vehicle control and 91.1 % vehicle control, respectively.
In the case of `COc1ccc2c(c1)[C@]1(C)CCN(Cc3ccccc3)C1N2` (stereo partly drawn) [MES 9278], the “APP Secretion by SH-SY-5Y Cells” value in the data set with secreted APP (Dose 2 uM) came to 118.4 % vehicle control; in the data set on secreted APP (Dose 6 uM), 116.8 % vehicle control; in the data set on secreted APP (Dose 20 uM), 120.6 % vehicle control. Further, the entries for the “APP Toxicity SH-SY-5Y Cells (MTS assay)” value in the data set with SH-SY-5Y Cells (Dose 2 uM), in the data set on SH-SY-5Y Cells (Dose 6 uM) and with SH-SY-5Y Cells (Dose 20 uM) were 97.63 % vehicle control, 98.4 % vehicle control and 96.33 % vehicle control, respectively.
As to `C[C@@]12CCN(Cc3ccccc3)C1Nc1ccc(O)cc12` (stereo partly drawn) [MES 9279], the “APP Secretion by SH-SY-5Y Cells” value in the data set with secreted APP (Dose 0.08 uM) is reported as 97.8 % vehicle control; in the data set on secreted APP (Dose 0.25 uM), 98.4 % vehicle control; in the data set on secreted APP (Dose 0.74 uM) it was 97 % vehicle control; in the data set with secreted APP (Dose 2 uM), 43.27 % vehicle control; in the data set on secreted APP (Dose 6 uM) it was 42.37 % vehicle control; in the data set on secreted APP (Dose 20 uM) it was 18.4 % vehicle control. Moreover, the “APP Toxicity SH-SY-5Y Cells (MTS assay)” value was determined as 102.9 % vehicle control in the data set with SH-SY-5Y Cells (Dose 0.08 uM); 101.1 % vehicle control in the data set with SH-SY-5Y Cells (Dose 0.25 uM); 100.1 % vehicle control in the data set on SH-SY-5Y Cells (Dose 0.74 uM); 68.63 % vehicle control with SH-SY-5Y Cells (Dose 2 uM); 46.67 % vehicle control in the data set on SH-SY-5Y Cells (Dose 6 uM); 38.63 % vehicle control with SH-SY-5Y Cells (Dose 20 uM).
Consider `CC(Br)C(=O)N(C)c1ccc(O)cc1` (stereo not drawn) [MES 9291, Propionanilde], for which the “APP Secretion by SH-SY-5Y Cells” value with secreted APP (Dose 0.08 uM) was determined as 98.2 % vehicle control; in the data set on secreted APP (Dose 0.25 uM) it was 99.5 % vehicle control; in the data set on secreted APP (Dose 0.74 uM), 99.7 % vehicle control; in the data set with secreted APP (Dose 2 uM), 100.1 % vehicle control; in the data set on secreted APP (Dose 6 uM), 96.9 % vehicle control; with secreted APP (Dose 20 uM) it was 67.8 % vehicle control. Moreover, the “APP Toxicity SH-SY-5Y Cells (MTS assay)” value came to 99.1 % vehicle control with SH-SY-5Y Cells (Dose 0.08 uM); 100.5 % vehicle control in the data set on SH-SY-5Y Cells (Dose 0.25 uM); 97.1 % vehicle control with SH-SY-5Y Cells (Dose 0.74 uM); 102.4 % vehicle control with SH-SY-5Y Cells (Dose 2 uM); 99.87 % vehicle control in the data set with SH-SY-5Y Cells (Dose 6 uM); 99 % vehicle control in the data set on SH-SY-5Y Cells (Dose 20 uM).
Take `CC1C(=O)N(C)c2ccc(O)cc21` (stereo not drawn) [MES 9292, 1,3-Dimethyl-5-hydroxyoxindole]: the “APP Secretion by SH-SY-5Y Cells” value turned out to be 106.15 % vehicle control in the data set on secreted APP (Dose 2 uM), 99.55 % vehicle control with secreted APP (Dose 6 uM) and 100.15 % vehicle control in the data set on secreted APP (Dose 20 uM). The “APP Toxicity SH-SY-5Y Cells (MTS assay)” value with SH-SY-5Y Cells (Dose 2 uM) was found to be 102.85 % vehicle control; with SH-SY-5Y Cells (Dose 6 uM), 103.75 % vehicle control; with SH-SY-5Y Cells (Dose 20 uM), 104.9 % vehicle control.
Regarding `COc1ccc2c(c1)C(C)C(=O)N2C` (stereo not drawn) [MES 9293], the “APP Secretion by SH-SY-5Y Cells” value in the data set on secreted APP (Dose 2 uM) is listed as 97.8 % vehicle control; with secreted APP (Dose 6 uM) it was 102.75 % vehicle control; with secreted APP (Dose 20 uM), 94.45 % vehicle control. Moreover, the “APP Toxicity SH-SY-5Y Cells (MTS assay)” value in the data set on SH-SY-5Y Cells (Dose 2 uM) turned out to be 100.8 % vehicle control; with SH-SY-5Y Cells (Dose 6 uM) it was 99.85 % vehicle control; with SH-SY-5Y Cells (Dose 20 uM) it was 101.95 % vehicle control.
With `COc1ccc2c(c1)[C@@]1(C)CCNC1N2C` (stereo partly drawn) [MES 9294], the “APP Secretion by SH-SY-5Y Cells” value with secreted APP (Dose 2 uM, listed as 9294) is given as 105.25 % vehicle control; with secreted APP (Dose 6 uM, listed as 9294), 90 % vehicle control; in the data set on secreted APP (Dose 20 uM, listed as 9294), 111 % vehicle control. Moreover, the “APP Toxicity SH-SY-5Y Cells (MTS assay)” value in the data set on SH-SY-5Y Cells (Dose 2 uM, listed as 9294) is recorded as 99.9 % vehicle control; with SH-SY-5Y Cells (Dose 6 uM, listed as 9294), 98.3 % vehicle control; in the data set on SH-SY-5Y Cells (Dose 20 uM, listed as 9294), 100.2 % vehicle control.
Consider `COc1ccc2c(c1)C1(C)CCSC1N2C` (stereo not drawn) [MES 9301], for which the “APP Secretion by SH-SY-5Y Cells” value was 108.45 % vehicle control with secreted APP (Dose 2 uM), 106.1 % vehicle control in the data set with secreted APP (Dose 6 uM) and 111.15 % vehicle control in the data set on secreted APP (Dose 20 uM). The “APP Toxicity SH-SY-5Y Cells (MTS assay)” value was 99.15 % vehicle control in the data set with SH-SY-5Y Cells (Dose 2 uM), 97.35 % vehicle control with SH-SY-5Y Cells (Dose 6 uM) and 95.9 % vehicle control in the data set on SH-SY-5Y Cells (Dose 20 uM).
With `COc1ccc2c(c1)[C@]1(C)CCSC1N2C` (stereo partly drawn) [MES 9302], the entries for the “APP Secretion by SH-SY-5Y Cells” value in the data set on secreted APP (Dose 2 uM), in the data set with secreted APP (Dose 6 uM) and with secreted APP (Dose 20 uM) were 100.35 % vehicle control, 105.4 % vehicle control and 105.8 % vehicle control, respectively. Moreover, the “APP Toxicity SH-SY-5Y Cells (MTS assay)” value with SH-SY-5Y Cells (Dose 2 uM) is 100.7 % vehicle control; in the data set with SH-SY-5Y Cells (Dose 6 uM), 101.2 % vehicle control; in the data set with SH-SY-5Y Cells (Dose 20 uM) it was 99.05 % vehicle control.
For `COc1ccc2c(c1)C1(c3ccccc3)CCNC1N2C` (stereo not drawn) [MES 9305], the “APP Secretion by SH-SY-5Y Cells” value was 106.2 % vehicle control with secreted APP (Dose 2 uM), 102.4 % vehicle control in the data set with secreted APP (Dose 6 uM) and 102.2 % vehicle control in the data set with secreted APP (Dose 20 uM). Further, the entries for the “APP Toxicity SH-SY-5Y Cells (MTS assay)” value in the data set with SH-SY-5Y Cells (Dose 2 uM), with SH-SY-5Y Cells (Dose 6 uM) and in the data set with SH-SY-5Y Cells (Dose 20 uM) were 95.8 % vehicle control, 96.73 % vehicle control and 94.83 % vehicle control, respectively.
